As usually defined, the % Inhibition is the change of the read-out against control, counted positive when it falls.

This is an account of results in patent publication US20250082598A1, “Melafenoxate, 2-(1-adamantylamino)ethyl 2-(4-chlorophenoxy)acetate and derivatives thereof for treating circadian rhythm sleep disorders with neurodegenerative diseases such as Alzheimer's disease” (NLS Pharmaceutics AG, priority 2021, published 2025).

The experiment concerns Cl— channel (GABA-gated). Description: Radioligand binding, Cl- channel (GABA-gated). The note with it: antagonist radioligand. As for the experimental part: Melafenoxate was tested at 10^−5 M, calculated as a % inhibition of control specific binding of a radioactively labeled ligand specific for each target.
This binding profile panel was broadly defined with roughly an equal number of selective, central and peripheral therapeutically relevant targets, including native animal tissues, radioligands and specific enzymes involved in cell cycle regulation in accordance with Eurofins Standard Operating Procedure.
For radioligand binding experiments, the half maximal inhibitory concentration (IC50) and the half maximal effective concentration (EC50) values were determined (via computer software) by nonlinear regression analysis of the competition curves using Hill equation curve fitting. The inhibition constants (Ki) were calculated using the Cheng-Prusoff equation (Ki=IC50/(1+(L/KD)), where L is the concentration of radioligand in the assay, and KD is the affinity of the radioligand for the receptor.^49
The results are expressed as a % control specific binding ([measured specific binding/control specific binding]×100) and as a % inhibition of control specific binding (100−[(measured specific binding/control specific binding)×100]) obtained in the presence of the test compounds. […]

`O=C(COc1ccc(Cl)cc1)OCCNC12CC3CC(CC(C3)C1)C2` [Melafenoxate, 2-(1-adamantylamino)ethyl 2-(4-chlorophenoxy)acetate]: the “% Inhibition at 10^−5 M” value worked out at 13.5%.
